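The compound was tested at five concentrations on cells cultured in 96-well plates, with a 48-hour exposure period. TGI marks complete inhibition of growth.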
Tests used:
Experiment in all cases: inhibition of tumour cell growth, NCI panel, 48 h
[1] = tested on: 786-0 renal
[2] = tested on: A498 renal
[3] = tested on: A549 NSCLC
[4] = tested on: ACHN renal
[5] = tested on: CAKI-1 renal
[6] = tested on: CCRF-CEM leukemia
[7] = tested on: COLO 205 colon
[8] = tested on: DLD-1 colon
[9] = tested on: DMS 114 small cell lung
[10] = tested on: DMS 273 small cell lung
[11] = tested on: HCT-116 colon
[12] = tested on: HCT-15 colon
[13] = tested on: HL-60(TB) leukemia
[14] = tested on: HOP-18 NSCLC
[15] = tested on: HOP-62 NSCLC
[16] = tested on: HOP-92 NSCLC
[17] = tested on: HT29 colon
[18] = tested on: IGROV1 ovarian
[19] = tested on: K-562 leukemia
[20] = tested on: KM12 colon
[21] = tested on: KM20L2 colon
[22] = tested on: LOX IMVI melanoma
[23] = tested on: LXFL 529 NSCLC
[24] = tested on: M14 melanoma
[25] = tested on: M19-MEL melanoma
[26] = tested on: MALME-3M melanoma
[27] = tested on: MOLT-4 leukemia
[28] = tested on: NCI-H226 lung
[29] = tested on: NCI-H23 lung
[30] = tested on: NCI-H460 lung
[31] = tested on: NCI-H522 lung
[32] = tested on: OVCAR-3 ovarian
[33] = tested on: OVCAR-4 ovarian
[34] = tested on: OVCAR-8 ovarian
[35] = tested on: RPMI-8226 leukemia
[36] = tested on: RXF 393 renal
[37] = tested on: RXF-631 renal
[38] = tested on: SF-268 CNS
[39] = tested on: SK-MEL-2 melanoma
[40] = tested on: SK-MEL-28 melanoma
[41] = tested on: SK-MEL-5 melanoma
[42] = tested on: SK-OV-3 ovarian
[43] = tested on: SN12C renal
[44] = tested on: SNB-19 CNS
[45] = tested on: SNB-75 CNS
[46] = tested on: SW-620 colon
[47] = tested on: TK-10 renal
[48] = tested on: U251 CNS
[49] = tested on: UACC-257 melanoma
[50] = tested on: UACC-62 melanoma
[51] = tested on: UO-31 renal
[52] = tested on: XF 498 CNS
[53] = tested on: HCC-2998 colon
[54] = tested on: SF-539 CNS
[55] = tested on: SNB-78 CNS
[56] = tested on: SR leukemia

Measured: TGI

COc1cc2c(cc1OC)C(C(=O)c1cccc(OC)c1OC)C(=O)N(C)CC2 (stereo unspecified)
not listed: [53] | [54] | [55] | [56]
> 100 µM: all other assays above

Cc1cn(C2CC(N(C)C)C(CO)O2)c(=O)[nH]c1=O (stereo unspecified)
not listed: [3] | [12] | [14] | [17] | [20] | [21] | [22] | [30] | [32] | [34] | [36] | [41] | [44] | [46] | [47] | [48] | [49]
> 100 µM: all other assays above

From PubChem BioAssay (NCI)
